{"source": "patent US20130267522A1", "about": "“METHODS FOR TREATING CANCER” (priority 2012, published 2013)", "tested_on": "naturally-occurring InvTCC", "experiment": "Study of folate-vinblastine conjugate in dogs with naturally-occurring InvTCC (tumor response)", "type": "in vivo", "conditions": "IV once weekly, dose escalation from 0.2 mg/kg", "method": "A study was performed in dogs with naturally-occurring InvTCC to investigate antitumor activity and toxicity of folate targeted vinblastine treatment. The study of folate targeted vinblastine was performed in privately owned dogs with naturally-occurring InvTCC at the Purdue University Veterinary Teaching Hospital (PUVTH), Inclusion criteria for dogs in the study included: measurable, histologically-confirmed InvTCC; positive folate uptake detected by scintigraphy or FR expression observed in the tumor via IHC; expected survival of at least 6 weeks; and written dog owner consent. The study was open to dogs that had failed other therapies or who were not eligible for standard therapy.\nThe folate-vinblastine conjugate EC0905 was used. Briefly, EC0905 is a water-soluble folate conjugate of desacetylvinblastine monohydrazide (DA VLBH), which is constructed with the DA VLBH drug moiety attached to a hydrophilic folate-peptide compound via an endosome-cleavable disulfide bond (FIG. 1). A dose escalation study was performed. EC0905 was administered IV once weekly (starting dose 0.2 mg/kg), Dose escalation was performed within and between dogs with at least 3 dogs in each dose group, and at least 6 dogs treated at the maximum tolerated dose (MTD) (increased by 0.02 mg/kg in each dose group). Toxicity was assessed by CBCs, serum chemistry profiles, urinalyses, physical exams, and owner observations. Toxicity was classified by Veterinary Cooperative Oncology Group (VCOG) criteria.\nThe EC0905 dose was reduced by 10% if grade 2 toxicity was noted, and by 20% if grade 3 or higher toxicity occurred. Treatment was delayed by one week if the neutrophil count was<3000/mm^3 or platelet count <100,000/mm^3 the day treatment was due. The treatment protocol was scheduled to continue until 8 weeks beyond complete remission, or until cancer progression, or until unacceptable toxicity was noted.\nPhysical exam, medical history, and CBC were obtained weekly. Monthly evaluation included CBC, serum biochemical profile, urinalysis, urinary tract ultrasound, and mapping of the bladder masses by ultrasound. Urinary tumors were measured by a single ultrasound operator, and estimated tumor volume was recorded. Prior to treatment and at 8-week intervals, complete tumor staging (thoracic radiography, full abdominal ultrasonography) was performed, and tumor stage determined by the World Health Organization criteria for canine urinary bladder tumors. Tumor response was defined as: complete remission (no cancer detected), partial remission (PR, ≧50% decrease in tumor volume and no new tumor lesions), stable disease (SD, <50% change in tumor volume and no new tumor lesions), and progressive disease (PD, ≧50% increase in tumor volume or the development of new tumor lesions)."}
{"substance": "Pte-γGlu-(Glu(1-amino-1-deoxy-D-glucitol)-Glu)3-Glu(1-amino-1-deoxy-D-glucitol)-Cys(S-ethyl-3-(4-desacetylvinblastinyl)hydrazinecarboxylate) [EC0905]", "values": [{"measurement": "Partial remission (PR), percent of cases", "value": 50, "unit": "%"}, {"measurement": "Partial remission (PR, ≧50% decrease in tumor volume and no new tumor lesions), number of dogs", "value": 5, "unit": "dogs"}, {"measurement": "Stable disease (SD), percent of cases", "value": 50, "unit": "%"}, {"measurement": "Stable disease (SD, <50% change in tumor volume and no new tumor lesions), number of dogs", "value": 5, "unit": "dogs"}]}
